Measurements published in patent publication US20240376114A1, “NUCLEAR TRANSPORT MODULATORS AND USES THEREOF” (Karyopharm Therapeutics Inc., priority 2011, published 2024).
Structures can show the parent of a compound that is named as a salt. Each block holds one compound with its values, some of them ahead of it.

Legend:
HCT-116 cells [1] = assay: Immunofluorescence of APC and IκB localization in HCT-116 cells; format: cell-based; details: 10 μM, 24 hours
Method: HCT-116 cells were incubated with 10 μM Compound 1 for 24 hours, at which time the cells were fixed and stained with antibodies to APC or IκB, or DAPI.

[2] = tested on: EAE model of multiple sclerosis; details: 25 mg/kg and 75 mg/kg, oral gavage, 3 days per week
HCT-116 cells [3] = assay: Western blot of pRb and phosphorylated pRb in HCT-116 cells; format: cell-based; details: 10 μM, more than 6 hours
Method: HCT-116 cells were incubated with 10 μM Compound 1 for 2, 4, 6, 16, or 24 hours (indicated in FIGS. 3A and 3B as “2+,” 4+,” etc.), or with 10 μM Compound 1 for 22 hours and an additional 1 μM Compound 1 for another 2 hours (indicated in FIGS. 3A and 3B as “22+2+”). At the end of the incubation period, total protein extracts were prepared. Cytoplasmic and nuclear proteins were separated, immunoblotted and reacted with antibodies to phosphorylated pRb (pRb^phos), pRb, actin and lamin B.

CRM1 [4] = target: T1, CRM1 (Homo sapiens (Human), UniProt O14980); assay: Immunofluorescence of p21 and p53 localization in HCT-116 cells; format: cell-based; details: 10 μM, 24 hours
Method: HCT-116 cells were incubated with 10 μM Compound 1 for 24 hours, at which time the cells were fixed and stained with antibodies to p21 or p53, or the DNA stain, DAPI.

HCT-116 cells [5] = assay: Western blot of p53, p21, PARP in cytoplasmic and nuclear fractions of HCT-116 cells; format: cell-based; details: 10 μM
Method: HCT-116 cells were incubated with 10 μM Compound 1 for 2, 4, 6, 16, or 24 hours (indicated in FIGS. 2A and 2B as “2+,” 4+,” etc.), or with 10 μM Compound 1 for 22 hours and an additional 1 μM Compound 1 for another 2 hours (indicated in FIGS. 2A and 2B as “22+2+”). At the end of the incubation period, total protein extracts were prepared. Cytoplasmic and nuclear proteins were separated, immunoblotted and reacted with antibodies to p53, p21, full-length (FL) PARP, cleaved PARP and lamin B.

[6] = Brain to plasma (B:P) ratio determination; format: in vivo; details: brain and plasma; mouse, PO at 10 mg/kg, 2 hours post-dose
Description: The brain to plasma (B:P) ratio is one method of quantifying the relative distribution of a therapeutic agent in brain tissue to that in circulation and, as such, provides one indication of the brain penetration of a given therapeutic agent. A high brain to plasma ratio is preferred when targeting diseases localized in the central nervous system (CNS), including the brain and the cerebrospinal fluid. However, a lower brain to plasma ratio is generally preferable for non-CNS therapeutic agents to minimize brain penetration and avoid potential side effects caused by unwanted accumulation of the therapeutic agents in the brain and CNS tissue.
Brain to Plasma (B:P) Ratio. […] Following collection, brain tissue was rinsed with cold saline, dried on filter paper, weighed and snap-frozen by placing on dry ice. All samples were stored frozen at approximately −80° C. until analysis. […] Plasma samples were treated with the identical method (except homogenization step) and the concentration of compound in each matrix was calculated based on generated standard curves.

[7] = tested on: splenocytes and circulating CD8 cells; assay: FACS of immune cells at day 26 of the EAE model; format: in vivo, mouse; details: day 26, high dose (75 mg/kg)
Description: On day 26, a subset of mice was sacrificed and immune cells were subjected to fluorescence-activated cell sorting (FACS) using standard methods.

HCT-116 cells [8] = assay: Immunofluorescence of pRb localization in HCT-116 cells; format: cell-based; details: 10 μM, 24 hours
Method: HCT-116 cells were incubated with 10 μM Compound 1 for 24 hours, at which time the cells were fixed and stained with antibodies to pRb or DAPI.

HCT-116 xenografts = assay: Inhibition of HCT-116 xenografts in vivo
Method: Mice were inoculated on the hind flank with HCT-116 cell line and the HCT-116 xenografts were grown to approximately 150 mm^3, at which time treatment was initiated. Treatment groups were as follows:
50 mg/kg 5-FU IP, days 1-3;
25 mg/kg Compound 1 compound QD×5 SC (low dose);
75 mg/kg Compound 1 compound QD×5 SC (high dose).

[9] = Pharmacokinetic (PK) assay, plasma AUC; format: in vivo; details: 10 mg/kg, mouse, PO, 10 mpk, read-out: AUCInf hr * ng/mL (mouse, PO, 10 mpk)
Method: Pharmacokinetics (PK) play an increasing role in drug discovery and development. Pharmacokinetics is the quantitative study of the time course of drug absorption, distribution, metabolism and/or excretion. When a drug is administered, it distributes rapidly from its administration site into the systemic blood circulation. One measure of the extent of a therapeutic agent's distribution is the area under the plasma concentration-time curve (AUC), calculated to the last measured concentration (AUCt) and extrapolated to infinity (AUCinf). AUC is thus a useful metric to quantitate drug exposure. AUC. Blood was collected from mice (N=3) to contribute to the total of 10 time points (pre-dose, 5 min, 15 min, 30 min, 1 hour, 2 hours, 4 hours, 8 hours, 12 hours and 24 hours post dose). Mice were bled on a rotating basis, each mouse contributing 3 time points to the blood collection. At the designated time points, animals were anaesthetized under isoflurane, and approximately 110 μL of blood per time point was collected via retro-orbital puncture into pre-cooled K2EDTA (anti-coagulant) tubes. Blood samples were put on wet ice and centrifuged (2000 g, 5 min at 4° C.) to obtain plasma within 30 minutes of sample collection. All samples were stored frozen at approximately −80° C. until analysis. Prior to analysis, samples were mixed with internal standard (dexamethasone) in acetonitrile, vortexed, centrifuged, and supernatant was injected for analysis. Concentration of compounds in plasma was determined using LC-MS-MS instrumentation (API 4000, Triple Quadruple with electrospray ionization; Acuity Ultra Performance Liquid Chromatography column C18, with MeOH and formic acid as organic solvents). AUC values were calculated using WinNonlin Professional 6.2 software package, non-compartmental pharmacokinetic model NCA200.

[10] = CellTiter 96 AQueous One Solution (MTS) cell proliferation assay; format: cell-based; details: human, MM.1S multiple myeloma cells; MM.1S cells, 72 h treatment; read-out: Cytotoxicity [EC50]
Description: The CellTiter 96® AQueous One Solution cell proliferation assay (Promega) was used on MM.1S multiple myeloma cell line to study the cytotoxic and cytostatic properties of the compounds. The assay is based on the cleavage of the tetrazolium salt, MTS, in the presence of an electron-coupling reagent PES (phenazine ethosulfate). The MTS tetrazolium compound is bioreduced by cells into a colored formazan product that is soluble in tissue culture medium. This conversion is presumably accomplished by NADPH or NADH produced by dehydrogenase enzymes in metabolically active cells. Assays are performed by adding a small amount of the CellTiter 96® AQueous One solution reagent directly to culture wells, incubating for 1-4 hours and then recording the absorbance at 490 nm with a 96-well plate reader.
The cells were seeded at 5×10^3 to 1.5×10^4 cells (depending on cell type) in each well of a 96-well plate in 100 μL of fresh culture medium and adherent cells were allowed to attach overnight. The stock solutions of the compounds were diluted in cell culture medium to obtain eight concentrations of each drug, ranging from 1 nM to 30 μM and DMSO at less than 1% v/v was used as a negative control. The resulting drug solutions were transferred onto the cells. After 72 h of treatment, 20 μl of CellTiter 96® AQueous reagent was added into each well of the 96-well assay plates and the plate was incubated at 37° C. for 1-4 hours in a humidified, 5% CO2 atmosphere. Then the absorbance of each well was recorded at 490 nm using a 96-well plate reader. In most cases, the assay was performed in triplicate and the results were presented as half maximal inhibitory concentration (IC50). Optical density versus compound concentration was plotted and analyzed using non-linear regression equations (IDBS XLfit) and the IC50 for each compound was calculated.

CRM1 [11] = target: T1, CRM1; assay: RevGFP assay: inhibition of CRM1-mediated nuclear export; format: cell-based; details: U2OS-RevGFP cells, about 1 hr incubation; read-out: Rev Export [IC50]
Method: The ability of exemplary compounds of the invention to inhibit CRM1-mediated nuclear export was assessed in a RevGFP assay. Rev is a protein from human immunodeficiency virus type 1 (HIV-1) and contains a nuclear export signal (NES) in its C-terminal domain and a nuclear localization signal (NLS) in its N-terminal domain. Nuclear export of Rev protein is dependent on the classical NES/CRM1 pathway (Neville et al. 1997).
In this assay, U2OS-RevGFP cells were seeded onto clear-bottomed, black, 384-well plates the day before the experiment. Compounds were serially diluted 1:2 in DMEM, starting from 40 μM in a separate, 384-well plate, and then transferred onto the cells. The cells were incubated with compound for about 1 hr before fixation with 3.7% formaldehyde and nuclei staining with Hoechst 33258. The amount of GFP in cell nuclei was measured and the IC50 of each compound was determined (Kau et al. 2003). […]

T1 sequence (O14980 whole entry): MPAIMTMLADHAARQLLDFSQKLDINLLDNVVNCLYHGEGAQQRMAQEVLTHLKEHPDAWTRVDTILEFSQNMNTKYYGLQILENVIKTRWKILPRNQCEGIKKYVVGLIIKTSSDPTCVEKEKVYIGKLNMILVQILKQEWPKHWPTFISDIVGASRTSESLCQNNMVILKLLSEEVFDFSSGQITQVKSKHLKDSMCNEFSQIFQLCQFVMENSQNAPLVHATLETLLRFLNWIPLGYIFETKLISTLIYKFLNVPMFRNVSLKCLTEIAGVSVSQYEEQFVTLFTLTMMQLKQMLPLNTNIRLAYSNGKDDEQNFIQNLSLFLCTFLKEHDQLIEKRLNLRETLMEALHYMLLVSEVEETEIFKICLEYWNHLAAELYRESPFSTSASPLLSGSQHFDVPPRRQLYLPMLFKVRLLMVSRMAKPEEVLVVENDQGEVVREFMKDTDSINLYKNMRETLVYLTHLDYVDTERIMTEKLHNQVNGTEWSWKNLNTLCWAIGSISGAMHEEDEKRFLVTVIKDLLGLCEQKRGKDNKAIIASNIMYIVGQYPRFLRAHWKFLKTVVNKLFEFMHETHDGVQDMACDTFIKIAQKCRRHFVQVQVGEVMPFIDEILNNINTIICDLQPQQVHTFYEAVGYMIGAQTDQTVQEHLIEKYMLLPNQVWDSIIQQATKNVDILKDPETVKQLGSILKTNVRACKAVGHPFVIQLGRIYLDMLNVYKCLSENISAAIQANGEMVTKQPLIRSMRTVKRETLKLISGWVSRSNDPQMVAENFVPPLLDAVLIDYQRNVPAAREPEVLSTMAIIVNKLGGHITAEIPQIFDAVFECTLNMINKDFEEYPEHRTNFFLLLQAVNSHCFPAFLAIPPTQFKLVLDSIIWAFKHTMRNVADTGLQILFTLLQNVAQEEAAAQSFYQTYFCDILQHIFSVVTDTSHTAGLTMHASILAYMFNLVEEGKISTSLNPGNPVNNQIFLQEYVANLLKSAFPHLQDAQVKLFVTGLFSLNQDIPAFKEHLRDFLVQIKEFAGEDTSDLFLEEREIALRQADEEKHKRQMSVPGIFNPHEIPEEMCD

Structure (SMILES): O=C(/C=C\n1cnc(-c2cc(C(F)(F)F)cc(C(F)(F)F)c2)n1)N1CC(F)(F)C1 [Compound 1, (Z)-3-(3-(3,5-bis(trifluoromethyl)phenyl)-1H-1,2,4-triazol-1-yl)-1-(3,3-difluoroazetidin-1-yl)prop-2-en-1-one]
Nuclear localization of APC and IκB (HCT-116 cells [1]): induced the nuclear localization of the tumor suppressor proteins, APC and IκB | EAE clinical score [2]: reduced the clinical score in a statistically significant manner | Phosphorylation state of pRb (Western blot) (HCT-116 cells [3]): induces dephosphorylation of pRb in both cytoplasmic and nuclear fractions | Nuclear export function of CRM1 (CRM1 [4]): inhibited the nuclear export function of CRM1 | Subcellular localization of p21 and p53 (CRM1 [4]): both p21 and p53 were concentrated in the nucleus | Induction of p21 and p53 (Western blot) (HCT-116 cells [5]; 2-24 hours): induces p21 and p53 in both cytoplasmic and nuclear fractions | Induction of apoptosis (PARP decrease, cleaved PARP increase) (HCT-116 cells [5]; 24 hours): induces apoptosis in HCT-116 cells after 24 hours | Kp at 2 h [6]: 5 | Number of splenocytes and circulating CD8 cells (FACS) [7]: modest decrease in the number of splenocytes and circulating CD8 cells | Nuclear localization of pRb (HCT-116 cells [8]): induced nuclear localization of the tumor suppressor gene protein, pRb | Tumor growth (tumor volume as percentage of initial volume) (HCT-116 xenografts; 25 or 75 mg/kg QDx5 SC, HCT-116 xenograft mice): inhibited tumor growth | Anti-tumor effect compared to 5-FU (HCT-116 xenografts; vs 50 mg/kg 5-FU IP days 1-3): superior anti-tumor effects compared to 5-FU | AUC(0-inf) [9]: 12300 ng·h/mL | EC50 at 72 h [10]: < 1000 nM

IC50 (CRM1 [11]): < 1000 nM
Structure (SMILES): O=C(/C=C/n1cnc(-c2cc(C(F)(F)F)cc(C(F)(F)F)c2)n1)N1CC(F)(F)C1 [Compound 4, (E)-3-(3-(3,5-bis(trifluoromethyl)phenyl)-1H-1,2,4-triazol-1-yl)-1-(3,3-difluoroazetidin-1-yl)prop-2-en-1-one]
EC50 at 72 h [10]: < 1000 nM

IC50 (CRM1 [11]): < 1000 nM
Structure (SMILES): O=C(/C=C\n1cnc(-c2cc(C(F)(F)F)cc(C(F)(F)F)c2)n1)NC1C2CNCC21 (stereo not drawn) [Compound 56, (Z)—N-(3-azabicyclo[3.1.0]hexan-6-yl)-3-(3-(3,5-bis(trifluoromethyl)phenyl)-1H-1,2,4-triazol-1-yl)acrylamide hydrochloride]
EC50 at 72 h [10]: < 1000 nM
